This is an account of results in US12245623B2, “Olive oil enriched with oleanolic acid, process for its preparation and use thereof” (CONSEJO SUPERIOR DE INVESTIGACIONES CIENTÍFICAS (CSIC), priority 2018, dated 2025).

Data set [1] in a line: Adverse effects in the PREDIABOLE Study (quarterly questioning and retrospective review of electronic medical records). The class given is in vivo, human. The conditions noted are these: indicated daily dose (55 mL oil, 36 mg OA/day), up to 30 months, humans. The text has this:
In each quarterly visit during the development of the trial, participants were questioned about the appearance of gastrointestinal disarrays or other kind of discomfort. On the other hand, a family physician not belonging to the study staff, and therefore being unaware of the allocation of the participants to the study groups, carried out a retrospective study using the electronic medical records.
They explored for each participant the period comprised between the inclusion in the trial up to two years after its completion, and focused on analytical values of serum creatinine levels (marker of renal function) and alanine and aspartate aminotransferase enzymes (as markers of hepatic alteration). Normal creatinine levels are established in 61.9 to 114.9 μM for men and 53 to 97.2 μM for women. A serum creatinine level 1.5-folds higher than the normal value (≈150 μM) was adopted as criteria of kidney function alteration.
Since micro and macrovascular disorders are frequently associated to pathological complications of insulin resistance and diabetes, the electronic medical records were also explored for cerebral (transient ischemic stroke and ictus), cardiac (ischemic heart disease, chronic ischemia and effort angina) and peripheral (peripheral arterial disease) vascular diseases. In addition, any other significant adverse event suffered by participants were also took in consideration. […]

Data set [2] in a line: Fasting plasma OA levels in the PREDIABOLE Study (GC-MS). The class given is in vivo, human. The conditions noted are these: both study groups. The text has this: At baseline and every six months afterwards, fasting blood samples were taken and analyzed for the serum glucose, insulin and HbA1c levels, as well as the lipid profile (triglycerides, total cholesterol, HDL-c and LDL-c). At each annual visit since the recruitment, participants were submitted to an OGTT. All these analytical determinations were made in the Laboratory of Analysis and Clinical Biochemistry of the ‘Virgen del Rocio’ University Hospital of Seville. In addition, aliquots of all the blood samples were sent to Instituto de la Grasa-CSIC to determine the plasma OA content. Laboratory technicians of both institutions were also blinded to the intervention groups.
Adherence to the dietary intervention has been assessed through two indirect methods: the self-reported compliance Haynes-Sackett (Rodriguez-Chamorro M A et al. Review of therapeutic compliance measurement tests used in clinical practice. Atencion Primaria 2008, 40, 413-417) test and the delivering of the empty bottles presumably consumed. In addition, the OA plasma levels have been measured, as objective biomarker of compliance, in a random sample of the PREDIABOLE biobank (25 aliquots per study group, corresponding to 0, 12, 18 and 30 months of follow-up). […]

The conditions of data set [3]: cited from earlier work.
For data set [4] the following is noted: previous study, Rada et al. 2015; cited from earlier work.

On to `CC1(C)CC[C@]2(C(=O)O)CC[C@]3(C)C(=CC[C@@H]4[C@@]5(C)CC[C@H](O)C(C)(C)[C@@H]5CC[C@]43C)[C@@H]2C1` [OA, 3b-hydroxy-olean-12-en-28-oic acid], for which the “safety of long-term administration” value in data set [1] was “safe for humans”. The “fasting OA plasma concentration, average value” in data set [2] (at the onset of the study) is recorded as “ca. 160 ng/mL”. The same molecule displayed a concentration at 30 months in data set [2] (human, in vivo, after 30 months of follow-up) of around 300 ng/mL. In data set [3], the “solubility in aqueous media” value was “practically insoluble” and the “solubility in lipophilic matrices” value was “partially soluble”. Moreover, the “mean residence time of OA in human blood after its ingestion” value in data set [4] was 8.9 h.
